We go through three compounds from PMC10791743, “Selective CK1α degraders exert antiproliferative activity against a broad range of human cancer cell lines” (Nature Communications, 2024).

Several values for one entry are separate records, joined by “and”; a condition that tells them apart may be missing. Equal entries are not always repeated. Entries after “also recorded” stand apart in the source; their conditions may differ.

For data set [1], the system named is panel of AML and ALL cell lines. The data set can be described thus: CTG viability in a panel of AML and ALL cell lines (Fig. 3a). The format is cell-based, human. Particulars: for IC50: replicate values. The method, then:
The primary screen was performed in 384-well format using the CellTiter Glo (CTG) luminescent cell viability assay (Promega) as previously described. […] After overnight incubation at 37 °C in a humidified 5% CO2 incubator, cells were treated with compounds in dose–response format using a Pintool on a Biomek FX^P Laboratory Automation Workstation (Beckman Coulter). […] Luminescence signal was measured using an EnVision plate reader (PerkinElmer).
HD-MB03 cell line was obtained from Drs. Milde, Witt and Deubzer[52]. HD-MB03 and MB004 cells were grown in a neurobasal medium supplemented with glutamine, streptomycin, penicillin, B27, EGF, bFGF, and heparin as previously described. MB002 and MB004 cells were obtained from Dr Yoon-Jae Cho[54]. MB002 cells were cultured in 80% neurobasal medium supplemented with glutamine, streptomycin, penicillin, B27, and 20% conditioned media from previous passages; EGF, bFGF, and heparin were also added to the medium. MHH-CALL4, NALM-16, MHH-CALL-2 cells were obtained from the German Collection of Microorganisms and Cell Cultures GmbH (DSMZ, Germany). PER-117 cells were obtained from Telethon Kids Institute (Perth, Australia). The cells were cultured in RPMI1640 medium supplemented with 10% FBS (Hyclone), Penicillin/Streptomycin (100 units/mL), and Glutamine (100 µM) except for MHH-CALL-2 cells where 20% FBS were used. […] OCI-AML3 cells were purchased from DSMZ (ACC 690) and cultured in Alpha-MEM media (Invitrogen) supplemented with 20% FBS and 100 U/ml penicillin–streptomycin. […] Cell identity was confirmed by STR profiling using PowerPlex® Fusion System (Promega).

The nature of data set [2]: Plasma stability assay, human. The format is in vitro ADME. Particulars: for Calculated Concentration: 0h standards set to Actual Concentration 100, IS warfarin, replicates. The method, then:
page 32: Aldrich, Saint Louis, MO) were diluted into 0.1 M potassium phosphate buffer (PBS, pH 7.4, KH2PO4, Cat. No: P284-500; K2HPO4, Cat. No: BP363-500, Fisher Scientific, Fair Lawn, NJ) and mixed well. 40 μL of this solution was transferred into the above compounds plates. For the time 0 plate, 3 fold (v:v) cold acetonitrile with warfarin (400 ng/mL) as the internal standard was added to […] and B in PBS, pH 7.4) and no incubation. For the other five time points’ plates, 10 μL NADPH regenerating agent mixer was added to each well to initiate the reaction, the plate was sealed and incubated at 37° C on an orbital shaker (100 rpm) for the required time, followed by quenching of the reaction by adding 3-fold volume of cold acetonitrile with internal standard to each well. The final concentration of each component applied in this reaction was liver microsome protein at 0.5 […] After quenching, all plates were securely sealed and thoroughly mixed at 600 rpm for 10 minutes. Subsequently, centrifugation was performed at 4000 rpm for 20 minutes. The resulting supernatants […] analysis using UPLC–MS/MS. The assessment of metabolic stability involved determining the half- life through a least-squares fit of multiple time points, employing first-order kinetics. Plasma stability assay5: The degradation of human or mouse plasma was assessed by monitoring the gradual reduction of the parent compound over specified time intervals (0, 3, 24, and 48 hours). Human and mouse plasma samples were sourced from GeneTex (Irvine, CA). Test compound stock solutions, prepared at 10 mM in DMSO, were dispensed into triplicate wells of a 96-well microplate using the Labcyte Echo 650 dispenser. For plates, excluding the time 0-hour plate, plasma was […] The plate was sealed, incubated at 37°C on an orbital shaker (100 rpm) for the required duration, and then quenched with cold acetonitrile, incorporating warfarin as the internal standard. In the case of the time 0-hour plate, cold acetonitrile with the internal standard was added to each well before introducing plasma, eliminating page 33: the need for further incubation. Following quenching, all plates were thoroughly mixed at 600 rpm for 10 minutes and centrifuged at 4000 rpm for 20 minutes. Supernatants were transferred to […] MS/MS analysis. Plasma stability was evaluated by determining the half-life through a least-squares fit of multiple time points based on first-order kinetics. Plasma protein binding assay: Test compound stock solutions were prepared at a concentration of 10 mM in DMSO. A Single-Use RED (Rapid Equilibrium Dialysis) device was acquired from Thermo Scientific (Cat. No: 99006, Rockford, IL). The sample preparation for plasma protein binding followed a modified version of Waters' method6. After thawing, plasma was centrifuged at 1000 rpm for 10 minutes to eliminate any particulates. Each compound was then prepared at a concentration of 10 µM in either human or mouse plasma. In the plasma protein binding assessment, 300 µL of spiked plasma solutions were introduced into the sample chamber (indicated by the red ring), while 550 µL of DPBS was added to the adjacent chamber. The plate was sealed and incubated at 37°C on an orbital shaker (100 rpm) for 4 hours. Post -incubation, 50 µL aliquots were withdrawn from each side of the insert and dispensed into a 96 -well storage plate. To create analytically identical sample matrices (matrix matching), an equivalent volume of blank plasma or DPBS was added to the necessary wells, followed by quenching w ith 3-fold (v:v) cold acetonitrile containing warfarin as the internal standard. Subsequently, the sealed plates were well -mixed at 600 rpm for 10 minutes and then centrifuged at 4000 rpm for 20 minutes. Supernatants were transferred to analytical […] Test compound concentrations were quantified in both the buffer and plasma chambers by determining peak areas relative to the internal standard. […]

[3] abbreviates: Homo sapiens, MOLM-13, MOLM-13 cells.
Setting [4] is: human plasma, regression of log concentration over time points 0, 3, 24, 48 h.

For `O=C1CCC(N2Cc3cc(Nc4noc5ccccc45)ccc3C2=O)C(=O)N1` (centres unmarked) [SJ3149], in data set [1] (CTG), the “IC50 values / cytotoxicity in panel of AML and ALL cell lines” value is recorded as “single digit nanomolar range; also recorded: low nanomolar to sub-nanomolar range”. The IC50 (usually the midpoint of a concentration-inhibition curve) in data set [1] (HNT-34 cells) is 1.5 nM; in data set [1] (Homo sapiens, HNT-34, HNT-34 cells), 1 nM; in data set [1] (Homo sapiens, Kasumi-3, KASUMI-3 cells), 118 nM; in data set [1] (Homo sapiens, MHHCALL4, MHHCALL-4 cells), 3 nM; in data set [1] (Homo sapiens, MHHCALL-2 cells) it was 2 nM; in data set [1] (setting [3]), 8 nM. The IC50 was 72 nM and 71.7 nM in data set [1] (KASUMI-3 cells); 4 nM in data set [1] (MHHCALL-4 cells); 11 nM and 7.1 nM in data set [1] (MOLM-13 cells). Moreover, the Plasma stability in data set [2] (human) stood at 8.5 h.

Regarding `O=C1CCC(N2Cc3cc(Nc4noc5ccccc45)ccc3C2=O)C(=O)N1` (centres unmarked) [SJ001043149-1], the “Calculated Concentration” value in data set [2] (human plasma, time point 3h) is 67.501 and 81.153 and 72.775; in data set [2] (human plasma, time point 24h), 13.370 and 15.407 and 13.318; in data set [2] (human plasma, time point 48h) it was 1.845 and 2.121 and 1.968. The compound also came in with a Ke in data set [2] (setting [4]) of 0.08114. Moreover, in data set [2] (setting [4]), the “t(1/2)” value is 8.5413.

In the case of `Cc1cccc(C(=O)Nc2ccc3c(c2)CN(C2CCC(=O)NC2=O)C3=O)c1` (centres unmarked) [SJ0040], the IC50 is 2 nM (2×) and 4.9 nM in data set [1] (HNT-34 cells); 27 nM in data set [1] (Homo sapiens, MHHCALL-2 cells); 125 nM in data set [1] (setting [3]); 16 nM and 11 nM and 30.2 nM in data set [1] (KASUMI-3 cells); 67 nM and 73 nM and 17 nM in data set [1] (MHHCALL-4 cells); 136 nM and 96.2 nM in data set [1] (MOLM-13 cells). The IC50 in data set [1] (NALM16 cells) is 130 nM and 16 nM and 25 nM.
